# Data: PubChem BioAssay (NCI)
# Values joined by “and” are separate entries in the source; they are usually repeats but may differ in a detail not shown here. Identical values can stand only once.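 Results reflect a 48-hour exposure of cells in 96-well plates to compound at five concentrations. GI50 is the concentration that inhibits growth by half. At the TGI there is no net growth.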
# Key:
# Assay in all cases: NCI tumour cell line growth inhibition, 48 h
# SK-MEL-28 melanoma = test system: SK-MEL-28 melanoma
# LOX IMVI melanoma = test system: LOX IMVI melanoma
# SF-295 CNS = test system: SF-295 CNS
# EKVX NSCLC = test system: EKVX NSCLC
# SK-OV-3 ovarian = test system: SK-OV-3 ovarian
# PC-3 prostate = test system: PC-3 prostate
# DU-145 prostate = test system: DU-145 prostate
# MDA-MB-435 = test system: MDA-MB-435
# SNB-75 CNS = test system: SNB-75 CNS
# A498 renal = test system: A498 renal
# 786-0 renal = test system: 786-0 renal
# SF-268 CNS = test system: SF-268 CNS
# NCI-H460 lung = test system: NCI-H460 lung
# T-47D breast = test system: T-47D breast
# SK-MEL-5 melanoma = test system: SK-MEL-5 melanoma
# HL-60(TB) leukemia = test system: HL-60(TB) leukemia
# NCI-H226 lung = test system: NCI-H226 lung
# SW-620 colon = test system: SW-620 colon
# OVCAR-8 ovarian = test system: OVCAR-8 ovarian
# A549 NSCLC = test system: A549 NSCLC
# NCI-H522 lung = test system: NCI-H522 lung
# UACC-257 melanoma = test system: UACC-257 melanoma
# HOP-62 NSCLC = test system: HOP-62 NSCLC
# RXF 393 renal = test system: RXF 393 renal
# HS 578T breast = test system: HS 578T breast
# SNB-19 CNS = test system: SNB-19 CNS
# UO-31 renal = test system: UO-31 renal
# KM12 colon = test system: KM12 colon
# OVCAR-5 ovarian = test system: OVCAR-5 ovarian
# SR leukemia = test system: SR leukemia
# SF-539 CNS = test system: SF-539 CNS
# HCT-15 colon = test system: HCT-15 colon
# SN12C renal = test system: SN12C renal
# K-562 leukemia = test system: K-562 leukemia
# U251 CNS = test system: U251 CNS
# OVCAR-3 ovarian = test system: OVCAR-3 ovarian
# MDA-MB-231 breast = test system: MDA-MB-231 breast
# NCI-H23 lung = test system: NCI-H23 lung
# OVCAR-4 ovarian = test system: OVCAR-4 ovarian
# CCRF-CEM leukemia = test system: CCRF-CEM leukemia
# MALME-3M melanoma = test system: MALME-3M melanoma
# TK-10 renal = test system: TK-10 renal
# NCI/ADR-RES ovarian = test system: NCI/ADR-RES ovarian
# HT29 colon = test system: HT29 colon
# HOP-92 NSCLC = test system: HOP-92 NSCLC
# ACHN renal = test system: ACHN renal
# RPMI-8226 leukemia = test system: RPMI-8226 leukemia
# M14 melanoma = test system: M14 melanoma
# HCC-2998 colon = test system: HCC-2998 colon
# MCF7 breast = test system: MCF7 breast
# HCT-116 colon = test system: HCT-116 colon
# CAKI-1 renal = test system: CAKI-1 renal
# UACC-62 melanoma = test system: UACC-62 melanoma
# BT-549 breast = test system: BT-549 breast
# IGROV1 ovarian = test system: IGROV1 ovarian
# MOLT-4 leukemia = test system: MOLT-4 leukemia
# COLO 205 colon = test system: COLO 205 colon
# MDA-N = test system: MDA-N
# SK-MEL-2 melanoma = test system: SK-MEL-2 melanoma
smiles,measurement,setting,value
COc1ccc(COC(=O)NCC(=O)NC(C)C(=O)NC(Cc2ccccc2)C(=O)OCc2ccccc2)cc1 (stereo not given),TGI,SK-MEL-28 melanoma,39.5 µM and 34.8 µM
same,TGI,LOX IMVI melanoma,79.1 µM and 38.8 µM
same,TGI,SF-295 CNS,47.8 µM and 39.1 µM
same,GI50,EKVX NSCLC,23.4 µM and 48.7 µM
same,TGI,EKVX NSCLC,56.6 µM and > 100 µM
same,GI50,SK-OV-3 ovarian,22.9 µM and > 100 µM
same,TGI,SK-OV-3 ovarian,42.5 µM and > 100 µM
same,GI50,PC-3 prostate,20 µM and > 100 µM
same,TGI,PC-3 prostate,47.8 µM and > 100 µM
same,GI50,DU-145 prostate,31.1 µM and > 100 µM
same,TGI,DU-145 prostate,> 100 µM
same,TGI,MDA-MB-435,47.3 µM and 71.7 µM
same,GI50,SNB-75 CNS,21.1 µM and 44.6 µM
same,TGI,SNB-75 CNS,60.9 µM and 89.2 µM
same,TGI,A498 renal,38.8 µM and > 100 µM
same,TGI,786-0 renal,73.1 µM and 36 µM
same,TGI,SF-268 CNS,> 100 µM and 55.2 µM
same,TGI,NCI-H460 lung,22.7 µM
same,TGI,T-47D breast,48.6 µM and 86.2 µM
same,GI50,SK-MEL-5 melanoma,13.8 µM and 56.3 µM
same,TGI,SK-MEL-5 melanoma,26.8 µM and > 100 µM
same,GI50,HL-60(TB) leukemia,3.12 µM and 17.7 µM
same,TGI,HL-60(TB) leukemia,10.7 µM and 37.8 µM
same,TGI,NCI-H226 lung,55.9 µM and 85.6 µM
same,TGI,SW-620 colon,> 100 µM
same,TGI,OVCAR-8 ovarian,> 100 µM
same,GI50,A549 NSCLC,18.8 µM and > 100 µM
same,TGI,A549 NSCLC,41.2 µM and > 100 µM
same,TGI,NCI-H522 lung,29.3 µM and 31.1 µM
same,GI50,UACC-257 melanoma,15.7 µM and > 100 µM
same,TGI,UACC-257 melanoma,29.8 µM and > 100 µM
same,TGI,HOP-62 NSCLC,54.2 µM and 49.4 µM
same,TGI,RXF 393 renal,82.2 µM
same,TGI,HS 578T breast,70.3 µM and 63.9 µM
same,GI50,SNB-19 CNS,21.5 µM and > 100 µM
same,TGI,SNB-19 CNS,41.1 µM and > 100 µM
same,GI50,UO-31 renal,23.2 µM and 69.6 µM
same,TGI,UO-31 renal,44.9 µM and > 100 µM
same,GI50,KM12 colon,62.8 µM and 23.9 µM
same,TGI,KM12 colon,> 100 µM and 46.3 µM
same,GI50,OVCAR-5 ovarian,36.3 µM and > 100 µM
same,TGI,OVCAR-5 ovarian,> 100 µM
same,TGI,SR leukemia,> 100 µM and 51.7 µM
same,GI50,SF-539 CNS,12.6 µM and 28.7 µM
same,TGI,SF-539 CNS,25.1 µM and > 100 µM
same,TGI,HCT-15 colon,> 100 µM
same,TGI,SN12C renal,> 100 µM and 51.9 µM
same,TGI,K-562 leukemia,> 100 µM and 52.6 µM
same,TGI,U251 CNS,44.3 µM and 47.3 µM
same,TGI,OVCAR-3 ovarian,64.2 µM and 50.7 µM
same,TGI,MDA-MB-231 breast,46.2 µM and 68.3 µM
same,TGI,NCI-H23 lung,> 100 µM
same,TGI,OVCAR-4 ovarian,41.2 µM and 95.1 µM
same,TGI,CCRF-CEM leukemia,> 100 µM and 43.9 µM
same,TGI,MALME-3M melanoma,37.6 µM and 92.3 µM
same,GI50,TK-10 renal,39.5 µM and > 100 µM
same,TGI,TK-10 renal,> 100 µM
same,TGI,NCI/ADR-RES ovarian,> 100 µM
same,TGI,HT29 colon,86.4 µM and 33.1 µM
same,GI50,HOP-92 NSCLC,18.2 µM and 40.9 µM
same,TGI,HOP-92 NSCLC,37.8 µM and > 100 µM
same,TGI,ACHN renal,44.5 µM and 36.7 µM
same,TGI,RPMI-8226 leukemia,> 100 µM and 57.1 µM
same,GI50,M14 melanoma,18 µM and 37.5 µM
same,TGI,M14 melanoma,31.8 µM and > 100 µM
same,TGI,HCC-2998 colon,64.3 µM and 37.4 µM
same,TGI,MCF7 breast,30.7 µM and 34.9 µM
same,TGI,HCT-116 colon,> 100 µM
same,TGI,CAKI-1 renal,41.5 µM and 65.7 µM
same,GI50,UACC-62 melanoma,18.8 µM and > 100 µM
same,TGI,UACC-62 melanoma,40.2 µM and > 100 µM
same,GI50,BT-549 breast,22.1 µM and > 100 µM
same,TGI,BT-549 breast,48.1 µM and > 100 µM
same,TGI,IGROV1 ovarian,> 100 µM
same,GI50,MOLT-4 leukemia,8.37 µM and 24.5 µM
same,TGI,MOLT-4 leukemia,55.9 µM and 49.3 µM
same,TGI,COLO 205 colon,80.8 µM and 52.9 µM
same,TGI,MDA-N,> 100 µM and 62.8 µM
same,GI50,SK-MEL-2 melanoma,35.5 µM and > 100 µM
same,TGI,SK-MEL-2 melanoma,83.3 µM and > 100 µM
COC1CC(OC2C(C)OC(OC3C(C)OC(OC4C(C)OC(O[C@H]5CC[C@@]6(C)C(=CC[C@]7(O)[C@@H]6C[C@@H](OC(C)=O)[C@@]6(C)[C@]7(O)CC[C@@]6(O)C(C)=O)C5)CC4OC)CC3OC)CC2OC)OC(C)C1O (stereo not given in full),TGI,LOX IMVI melanoma,> 25 µM
same,TGI,SF-295 CNS,> 25 µM
same,TGI,EKVX NSCLC,> 25 µM
same,TGI,SK-OV-3 ovarian,> 25 µM
same,TGI,PC-3 prostate,> 25 µM
same,TGI,DU-145 prostate,> 25 µM
same,TGI,MDA-MB-435,> 25 µM
same,TGI,SNB-75 CNS,> 25 µM
same,TGI,786-0 renal,> 25 µM
same,TGI,SF-268 CNS,> 25 µM
same,TGI,T-47D breast,> 25 µM
same,TGI,SK-MEL-5 melanoma,> 25 µM
same,TGI,HL-60(TB) leukemia,> 25 µM
same,TGI,NCI-H226 lung,> 25 µM
same,TGI,SW-620 colon,> 25 µM
same,TGI,OVCAR-8 ovarian,> 25 µM
same,TGI,A549 NSCLC,> 25 µM
same,TGI,NCI-H522 lung,> 25 µM
same,TGI,UACC-257 melanoma,> 25 µM
same,TGI,HOP-62 NSCLC,> 25 µM
same,TGI,HS 578T breast,> 25 µM
same,TGI,SNB-19 CNS,> 25 µM
same,TGI,UO-31 renal,> 25 µM
same,TGI,KM12 colon,> 25 µM
same,TGI,OVCAR-5 ovarian,> 25 µM
same,TGI,SR leukemia,> 25 µM
same,TGI,SF-539 CNS,> 25 µM
same,TGI,HCT-15 colon,> 25 µM
same,TGI,SN12C renal,> 25 µM
same,TGI,K-562 leukemia,> 25 µM
same,TGI,U251 CNS,> 25 µM
same,TGI,OVCAR-3 ovarian,> 25 µM
same,TGI,MDA-MB-231 breast,> 25 µM
same,TGI,NCI-H23 lung,> 25 µM
same,TGI,OVCAR-4 ovarian,> 25 µM
same,TGI,CCRF-CEM leukemia,> 25 µM
same,TGI,MALME-3M melanoma,> 25 µM
same,TGI,TK-10 renal,> 25 µM
same,TGI,NCI/ADR-RES ovarian,> 25 µM
same,TGI,HT29 colon,> 25 µM
same,TGI,HOP-92 NSCLC,> 25 µM
same,TGI,ACHN renal,> 25 µM
same,TGI,RPMI-8226 leukemia,> 25 µM
same,TGI,M14 melanoma,> 25 µM
same,TGI,HCC-2998 colon,> 25 µM
same,TGI,MCF7 breast,> 25 µM
same,TGI,HCT-116 colon,> 25 µM
same,TGI,CAKI-1 renal,> 25 µM
same,TGI,UACC-62 melanoma,> 25 µM
same,TGI,BT-549 breast,> 25 µM
same,TGI,IGROV1 ovarian,> 25 µM
same,TGI,MOLT-4 leukemia,> 25 µM
same,TGI,COLO 205 colon,> 25 µM
same,TGI,MDA-N,> 25 µM
same,TGI,SK-MEL-2 melanoma,> 25 µM
